Measured values: patent publication US9211278B2, “Composition containing arylnaphthalene lignan derivative for preventing and/or treating dementia” (KOREA INSTITUTE OF SCIENCE AND TECHNOLOGY, priority 2012, dated 2015)

Experiments:
male ICR mouse = assay: Morris water maze test, scopolamine-impaired memory model; format: in vivo; conditions: oral, 1, 5, 10 and 20 mg/kg, compared to scopolamine group
Protocol: The male ICR mouse was 5 to 6-week age (25-30 g of body weight) (Orientbio Inc., Seougnam, Republic of Korea), and was raised with solid feed and tap water for 1 week before being used for test. At a first day, the normal control group and the group administered by the scopolamine were fed with 5% (v/v) DMSO-saline, the test group was orally administered by 1, 5, 10 and 20 mg/kg/10 ml of Justicidin A (C1) in 5% DMSO-Saline, and the comparative group was administered with 2 mg/kg/10 ml of Donepezil (brand name: Aricept, Eisai) being commercially available as a drug for treating an dementia of the Alzheimer's type. […]
The same test was performed repetitively twice per a day for 4 days as an Acquisition Test, and the entire test was automatically recorded and analyzed with Noldus Ethovision 7.0 program (Noldus Information Technology, USA).
In addition, after finishing the Acquisition Test performed for four (4) days, the Probe test was carried out at fifth day. […] The whole test procedure was automatically recorded and analyzed with Noldus Ethovision 7.0 program (Noldus Information Technology, USA).

transferrin endocytosis = assay: Transferrin endocytosis (confocal microscopy); format: cell-based, human; conditions: 1 uM, 10, 30, 60 min at 37° C.
Protocol: The reduced endocytosis rate may be caused by total reduction of endocytosis other than the specific reduction of APP endocytosis rate, because many proteins other than APP can be modified to include the O-glycosylation and the like, by Justicidin A. Thus, the effect of Justicidin A to transferrin, internalized by clathrin-dependent endocytosis like APP was measured, in order to identify selectivity of reducing of APP endocytosis rate by O-glycosylation.
5×10^5 cells of HeLa cell line transfected with amyloid precursor protein (APP) same as above, incubated for 24 hrs, 1 uM Justicidin A treated at 4° C. for 45 min. Then, transferrin was fluorescent-labeled by treating Alexa Fluor 488 conjugated transferrin (25 ug/ml concentration, #T13342, Invitrogen). Transferrin endocytosis was progressed depending on the incubation time 10, 30, 60 min at 37° C., then remained transferrin was washed out by treating pH 5.5 buffer (0.1M sodium acetate, 0.05M NaCl) to cell surface for 5 min
Intracellular location of transferrin was measured by confocal microscopy (LSM510, Zeiss, Germany) at 488 nm.

[1] = system: APP targeted to plasma membrane (maAPP); assay: Targeting of mature APP (maAPP) to plasma membrane, biotinylation method; format: cell-based, human
Protocol: It is reported that APP made in ER, then passed through Golgi, targeted to plasma membrane, in the maAPP form. APP hydrolysis was performed by alpha-secretase, sAPPα secretion was increased, and Aβ secretion, made by beta secretase, was decreased. Relative amount of maAPP increased by Justicidin A, amount of APP targeted to plasma membrane was measured by biotinylation method.
Hela cell line, transfected with the amyloid precursor protein (APP), was incubated in DMEM (Cat. #11995, Gibco, USA). The cell line was received from Prof. Tae-Wan Kim at Department of Pathology, Columbia University Medical Center, New York, N.Y. 10032, USA. 1.5×10^6 cells seeded in 60 mm dish, incubated for 24 hours. […] Avidin (S 1638, Sigma), specifically interacted to biotin, added to pellet (30 ul, 4° C., incubated for 30 min) for precipitation biotinylated protein, and precipitated protein was performed electrophoresis, then measured change of APP protein, exposed protein of outside of cell, by western blotting with APP antibody (1:2000 diluted, A8717, Sigma).
When Justicidin A was treated for 1 hour, the biotinylated APP was increased as the concentration increased 0.03, 0.1, and 0.25 uM, the and the molecular weight was the same as O-glycosylated APP (maAPP) (FIG. 7a). The result of western blotting was measured by band intensity to show the result in FIG. 7b. […]

[2] = system: PC12 cell treated with Aβ25-35; assay: Protection against cellular toxicity induced by Aβ25-35; format: cell-based; conditions: 30 uM Aβ25-35, 48 hrs
Protocol: To identify the protecting effect against cellular toxicity induced by Aβ, PC12 cell was treated with Justicidin A and Aβ25-35 and measured cell viability. More particularly, 1.5×10^4 cells of PC12 were seeded to each well of 96-well plate, and incubated for 24 hrs. Then, the plate was treated with various concentrations of Justicidin A 30 min, treated 30 uM Aβ25-35, and incubated for 48 hrs. Cell viability was measured by Cell counting kit-8 to show the result FIG. 12b.

## COc1cc2c(OC)c3c(c(-c4ccc5c(c4)OCO5)c2cc1OC)C(=O)OC3 [Justicidin A]
Male ICR mouse
  memory and learning ability (acquisition and probe test): equivalent or higher memory and learning ability
Transferrin endocytosis
  transferrin endocytosis: no effect of Justicidin A to transferrin endocytosis
[1]; 0.1 uM, 10 min to 240 min
  amount of maAPP in the cell membrane, by treatment time: the amount of maAPP in the cell membrane as the treatment time increased
[1]; 0.03, 0.1, and 0.25 uM, 1 hour
  amount of maAPP (biotinylated APP) in plasma membrane, by concentration: amount of maAPP increased in plasma membrane in a concentration-dependent manner
[2]
  toxicity induced by Aβ25-35: reduced the toxicity induced by Aβ25-35 in a concentration-dependent manner
